The structures appear in SMILES notation. Entries after “also recorded” stand apart in the source; their conditions may differ.

Results on 1 compound are retold here after US12377077B2, “Methods and formulations to treat mitochondrial dysfunction” (The Board of Trustees of the Leland Stanford Junior …, priority 2018, dated 2025).

The test system of assay [1] is ischemic stroke model. The assay is described as follows: Ischemic stroke model, transient middle cerebral artery occlusion, TTC staining. The note with it: PT1 100 mg/kg IP vs vehicle. Format: in vivo, mice. On the procedure:
Methods: To generate an ischemic stroke model, ischemic lesions were induced by transiently occluding the middle cerebral artery for 45 minutes, followed by reperfusion. Mice were then injected intraperitoneally with either 100 mg/kg of PT1 or vehicle in two doses, 1 hour and 24 hours post-occlusion, and sacrificed one hour later for terminal tissue collection. Isolated brains were placed in cold saline for 20 minutes, sliced in seven coronal slices (2 mm thick), and stained in a 1.0% 2,3,5-triphenyltetrazolium chloride (TTC) solution in saline at 37° C. for 30 minutes. The stained brain tissues were fixed in 10% formalin in phosphate-buffered saline. The images were captured using a CCD camera (Panasonic Corporation, Japan) and the unstained damaged areas were defined as infarcted tissue and were quantified using Image Pro Plus 4.1 software (Media Cybernetics, Silver Spring, MD).

For assay [2], the system named is NGLY1 deficient fibroblasts. The assay is described as follows: Oxygen consumption rate (OCR), XF96 extracellular flux analyzer. The note with it: PT1 vs DMSO, FIG. 6C. It counts as cell-based, human. On the procedure:
Methods: Oxygen consumption rate (OCR) was measured using an XF96 extracellular flux analyzer (Seahorse Biosciences). Fibroblasts were seeded at 10×10^3 cell/well in 100 ul media containing 8.3 mM glucose and supplemented with 10% fetal bovine serum (FBS) (Fisher Scientific), 1% Penicillin-Streptomycin (10,000 U/mL)(Life Technologies), 1% glutaMAX (Life Technologies), 1% uridine (5 mg/ml) and 1% pyruvate (11 mg/ml) on an XF 96 well plate at 37° C., 5% CO2. The following day the medium was replaced with the mitochondrial stressor media (details above) with or without PT1, A-769662, and AICAR. After 48 hours the stressor media was replaced with 175 μl unbuffered XF base DMEM medium (Fisher Scientific) with the same constituents as the mitochondrial stressor medium and incubated at 37° C. for 30 min for equilibrium before the measurements. OCR Baseline measurements were measured three times, once every five minutes. After the experiment, cell content was estimated by Calcein AM fluorescence intensity (FI) and OCR was calculated as OCR divided by FI.

Assay [3] relates to NGLY1 deficient fibroblasts. Put plainly: ATP levels, CellTiter-Glo ATP Assay. Particulars: PT1 48 hrs vs DMSO. Format: cell-based, human. On the procedure: (§1) Methods: SURF1, POLG, and NGLY1 patient cells were supplemented with PT1 or DMSO (untreated control) for 48 hrs (n=3) and ATP levels measured by the CellTiter-Glo ATP Assay or for 72 hrs (n=3) and ROS levels were measured by the CellROX Deep Red Flow Cytometry Assay. Results were normalized to total protein concentration. Data are represented as the mean±standard error of the mean. Statistical significance was measured to p<0.05.

The subject of assay [4] is POLG deficient fibroblasts. The assay is described as follows: ATP levels, CellTiter-Glo ATP Assay. Format: cell-based, human. Particulars: PT1 48 hrs vs DMSO. How it is done:
as §1

The test system of assay [5] is SURF1 deficient fibroblasts. The assay is described as follows: ATP levels, CellTiter-Glo ATP Assay. It counts as cell-based, human. The note with it: PT1 48 hrs vs DMSO. How it is done:
as §1

Assay [6] relates to NGLY1 deficient fibroblasts. The assay is described as follows: Cell viability by Calcein AM in mitochondrial stressor media. Format: cell-based, human. The note with it: NGLY-1 deficient fibroblasts from three individuals; +PT1 vs −PT1; FIG. 2E. On the procedure: (§2) Fibroblasts previously derived from four patients with primary mitochondrial disease (Surf1, Complex I, Cox10, Polg), three patients with NGLY1 deficiency and four normal controls were used for the study. All samples were obtained with informed consent and approved by the Stanford IRB. Fibroblasts were maintained in DMEM medium containing 8.3 mM glucose and supplemented with 10% fetal bovine serum (FBS)(Fisher Scientific), 1% Penicillin-Streptomycin (10,000 U/mL)(Life Technologies), 1% glutaMAX (Life Technologies), 1% uridine (5 mg/ml) and 1% pyruvate (11 mg/ml) at 37° C., 5% CO2.
(§3) For the screening of various compounds, 15×10^3 cells/500 ul media were seeded in quadruplets on 24 well microtiter plates. The following day, the medium was removed, wells washed with PBS and replaced with a mitochondrial stressor media containing DMEM, 1% Penicillin-Streptomycin (10,000 U/mL)(Life Technologies), 10% FCS (Fisher Scientific), 1 mM Galactose (Sigma Aldrich), and 25 μM sodium azide with or without the following compounds: 1 mM AICAR (Medchem Express), 1 mM Metformin (Sigma Aldrich), 100 μM PT1 (Santa Cruz Biotechnology), 100 μM A-769662 (Medchem Express), 100 μM C24 (Medchem Express). Following treatment with the various compounds, tissue cultures were analyzed for growth, oxygen consumption rate, and ATP levels.
(§4) Methods: Cell growth was measured by a fluorometric method using Calcein AM (Anaspec). Mitochondrial stressor media was removed, wells washed with PBS and then incubated with 500 ul/well of 800 nM Calcein AM in PBS for 30 min at 37 C, 5% CO2. Cell viability was measured by values obtained using a 485 nm excitation with the Flouroskan Ascent Microplate Fluorometer (Thermo Scientific).

In assay [7] the test system is CI-deficient fibroblasts. The description is as above. Particulars: FIG. 2C. It counts as cell-based, human. How it is done:
as §2, §3, §4

For `Cc1cc(-c2ccc(C=C3SC(=S)N(c4ccc(Cl)c(C(=O)O)c4)C3=O)o2)c([N+](=O)[O-])cc1C` [PT1], in assay [1] (FIG. 10A), the “percent of infarct tissue in brain” value was “marked improvement”. Also, in assay [1] (FIGS. 10B-10C, 100 mg/kg), the “infarcted regions in TTC-stained brain slices” value is “much lower amounts of ischemic tissue; also recorded: reduction in size of the infarcted regions”. The “improvement in basal respiration (basal OCR)” value in assay [2] worked out at 16%. The “increase in ATP production / content” value in assay [3] came out at 40%; in assay [4], 36%; in assay [5], 35%. The improvement in viability in assay [6] is ≤ 60% and up to 60%. The survival / viability result in assay [7] is reported as “improves survival; also recorded: significantly improved survival”.
